From ChEMBL document CHEMBL5532729, “Nonsymmetrically Substituted 1,1'-Biphenyl-Based Small Molecule Inhibitors of the PD-1/PD-L1 Interaction” (ACS Med Chem Lett, 2024)

Molecular target: Programmed cell death protein 1/Programmed cell death 1 ligand 1 (Homo sapiens, UniProt Q9NZQ7)
Assay: Inhibition of interaction of PD-1 (unknown origin) expressed in Jurkat T cells co-transfected with NFAT response element/PD-L1 (unknown origin) expressed in CHO-K1 cells by reporter bioassay
Assay type: cell-based

Programmed cell death protein 1/Programmed cell death 1 ligand 1, sequence (Q15116 whole entry): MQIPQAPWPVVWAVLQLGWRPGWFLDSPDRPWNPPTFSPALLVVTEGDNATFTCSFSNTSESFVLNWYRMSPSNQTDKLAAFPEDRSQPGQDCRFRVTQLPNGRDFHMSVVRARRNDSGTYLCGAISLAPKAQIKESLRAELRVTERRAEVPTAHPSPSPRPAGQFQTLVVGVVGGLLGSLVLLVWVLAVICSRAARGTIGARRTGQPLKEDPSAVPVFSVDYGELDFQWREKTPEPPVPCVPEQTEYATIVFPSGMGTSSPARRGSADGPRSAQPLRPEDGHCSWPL
Programmed cell death protein 1/Programmed cell death 1 ligand 1, sequence (Q9NZQ7 whole entry): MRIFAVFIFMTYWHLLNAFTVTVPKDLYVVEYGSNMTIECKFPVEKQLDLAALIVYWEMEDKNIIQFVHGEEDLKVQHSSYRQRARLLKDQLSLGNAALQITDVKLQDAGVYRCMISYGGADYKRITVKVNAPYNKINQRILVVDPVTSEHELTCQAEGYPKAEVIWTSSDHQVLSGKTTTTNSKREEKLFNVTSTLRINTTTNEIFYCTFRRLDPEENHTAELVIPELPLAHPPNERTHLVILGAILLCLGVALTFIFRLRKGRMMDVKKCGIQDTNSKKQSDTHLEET

Cc1c(NC(=O)c2ccc(CNCCO)cn2)cccc1-c1cccc(NC(=O)c2ccc(CNCCO)cn2)c1C gave an EC50 of 17 nM.
